Source: publication PMC6270759, “Constituents of the Roots and Leaves of Ekebergia capensis and Their Potential Antiplasmodial and Cytotoxic Activities” (Molecules, 2014)
Like-named read-outs stand apart in the source and are kept apart here. Marks after values point to notes of the source that are not given here.

What was measured:
[1] = system: chloroquine-sensitive D6 strain of P. falciparum; assay: In vitro antiplasmodial assay, (G-3H) hypoxanthine incorporation, D6 strain; format: cell-based; details: Plasmodium falciparum
Protocol: (§1) Continuous in vitro cultures of asexual erythrocytic stages of Indochinese chloroquine-resistant W2 and Sierra Leonean chloroquine-sensitive D6 strains of P. falciparum were maintained following the modified procedure described by Trager and Jensen. Drug assay was carried out following a modification of the semiautomated microdilution technique, which measures the ability of the extracts to inhibit the incorporation of (G-^3H) hypoxanthine into the malaria parasite. […] Data was transferred into the software Microsoft Excel and was expressed as the percentage of the untreated controls. The drug concentration required for 50% inhibition of (G-^3H) hypoxanthine incorporation into parasite nucleic acid was calculated with nonlinear regression analysis of the dose-response curve.

[2] = system: chloroquine-resistant W2 strain of P. falciparum; assay: In vitro antiplasmodial assay, (G-3H) hypoxanthine incorporation, W2 strain; format: cell-based; details: Plasmodium falciparum, pure compounds
Protocol: as §1

[3] = system: African monkey kidney (vero) cells; assay: MTT cytotoxicity assay, vero cells; format: cell-based; details: Primates, 48 h, read-out: IC50 Vero
From the text: (§2) This assay is based on the ability of a mitochondrial dehydrogenase enzyme from viable cells to cleave the tetrazolium rings of the pale yellow MTT and thereby form dark blue formazan crystals, which are largely impermeable to cell membranes, resulting in their accumulation within healthy cells. The amount of generated formazan is directly proportional to the number of cells. […] Cells were maintained in Eagle’s Minimum Essential Medium (MEM) containing 10% fetal bovine serum (FBS). A cell density of 20.000 cells per well in 100 μL were seeded on 96-well plates and incubated for 12 h at 37 °C and 5% CO2 to attach to the surface. […] The plates were incubated for 48 h at 37 °C and 5% CO2, followed by an addition of 10 µL MTT viability indicator reagent. The plates were incubated for additional 4 h at the same conditions. Next, all media was removed from the plates and 100 µL DMSO was added to dissolve the formazan crystals. The plates were read on a Multiskan EX Labsystems scanning multi-well spectrophotometer at 562 nm, and 620 nm as reference. The results were recorded as optical density (OD) per well at each drug concentration. The data was transferred into the software Microsoft Excel and expressed as percentage of the untreated controls.

[4] = system: mouse breast cancer (4T1) cells; assay: MTT cytotoxicity assay, 4T1 cells; format: cell-based; details: 4T1, 48 h, pure compounds
From the text: as §2

[5] = system: human larynx carcinoma (HEp2) cells; assay: MTT cytotoxicity assay, HEp2 cells; format: cell-based; details: HEp-2, pure compounds, 48 h
Protocol: (§3) A rapid colorimetric assay was carried out using 3-(4,5-dimethylthiazol-2-yl)-2,5-diphenyltetrazolium bromide (MTT). This assay is based on the ability of a mitochondrial dehydrogenase enzyme from viable cells to cleave the tetrazolium rings of the pale yellow MTT and thereby form dark blue formazan crystals, which are largely impermeable to cell membranes, resulting in their accumulation within healthy cells. The amount of generated formazan is directly proportional to the number of cells. In this assay, the mammalian cell lines African monkey kidney (vero), mouse breast cancer (4T1) and human larynx carcinoma (HEp2) were used. Cells were maintained in Eagle’s Minimum Essential Medium (MEM) containing 10% fetal bovine serum (FBS). A cell density of 20.000 cells per well in 100 μL were seeded on 96-well plates and incubated for 12 h at 37 °C and 5% CO2 to attach to the surface. Samples of the tested extracts and isolated compounds were added to the cultured cells in rows H-B over a concentration range of 0.14 to 100 μg/mL, whereas wells 1–8 of row A served as untreated controls and wells 9–12 as blank (1% DMSO, v/v). The plates were incubated for 48 h at 37 °C and 5% CO2, followed by an addition of 10 µL MTT viability indicator reagent. The plates were incubated for additional 4 h at the same conditions. Next, all media was removed from the plates and 100 µL DMSO was added to dissolve the formazan crystals. The plates were read on a Multiskan EX Labsystems scanning multi-well spectrophotometer at 562 nm, and 620 nm as reference. The results were recorded as optical density (OD) per well at each drug concentration. The data was transferred into the software Microsoft Excel and expressed as percentage of the untreated controls. Percentage cytotoxicity (PC) as compared to the untreated controls was calculated as PC = [A − B/A] × 100, where A is the mean OD of the untreated cells and B is the mean OD at each drug concentration. The drug concentration required for 50% inhibition of cell growth was estimated using nonlinear regression analysis of the dose- response curve.

[6] = system: MDA-MB-231 human breast cancer cells; assay: Alamar Blue cytotoxicity assay, MDA-MB-231 cells; format: cell-based; details: pure compounds, 72 h
Protocol: Cytotoxicity tests on MDA-MB-231 cells were carried out following a previously described procedure. MDA-MB-231 human breast cancer cells were cultured in Dulbecco’s modified eagle medium (DMEM) supplemented with 10% (v/v) fetal bovine serum, 2 mM L-glutamine, 100 units/mL penicillin and 100 μg/mL streptomycin at 37 °C in humidified 5% CO2. For cytotoxicity assays, cells were seeded in 96-well plates at optimal cell density (10,000 cells per well) to ensure exponential growth for the duration of the assay. After a 24 h preincubation growth, the medium was replaced with experimental medium containing the appropriate drug concentrations or vehicle controls (0.1% or 1.0% v/v DMSO). After 72 h of incubation, cell viability was measured using Alamar Blue reagent (Invitrogen Ab, Lidingö, Sweden) according to the manufacturer’s instructions. Absorbance was measured at 570 nm with 600 nm as a reference wavelength. Results were expressed as the mean ± standard error for six replicates as a percentage of vehicle control (taken as 100%). Experiments were performed independently at least six times. Statistical analyses were performed using a two-tailed Student’s t-test. p < 0.05 was considered to be statistically significant.

vero cells = assay: Interaction of oleanonic acid (2) with other triterpenoids, fixed ratios, vero cell cytotoxicity; format: cell-based, African monkey; details: for IC50: Primates, ratio 0:1, in the absence of 2 (for 2: alone), read-out: IC50 (μg/mL), substance alone; for ∑FIC 1:1: ratio of oleanonic acid (2) versus constituent 1:1; for ∑FIC 1:3: ratio of oleanonic acid (2) versus constituent 1:3; for ∑FIC 3:1: ratio of oleanonic acid (2) versus constituent 3:1
From the text: as §3, with “This” for “A rapid colorimetric assay was carried out using 3-(4,5-dimethylthiazol-2-yl)-2,5-diphenyltetrazolium bromide (MTT). This”, “In this assay, the mammalian cell lines African monkey kidney (vero), mouse breast cancer (4T1) and human larynx carcinoma (HEp2) were used.” left out, “Samples of the tested extracts and isolated compounds were added to the cultured cells in rows H-B over a concentration range of 0.14 to 100 μg/mL, whereas wells 1–8 of row A served as untreated controls and wells 9–12 as blank (1% DMSO, v/v).” left out, “curve. The interaction of oleanonic acid (2) with other triterpenoids was studied using the fixed concentration ratios oleanonic acid: ‘other triterpenoid’ 0:1, 1:3, 1:1, 3:1, 1:0. The vero cell cytotoxicity assay was used, as described above, to evaluate the toxicity of the mixtures. To determine whether there was synergy, additive effect or antagonism, the sum of fractional inhibition concentration (∑FIC) was calculated using the formula Ax/Ay + Bx/By = K, where Ax and Bx are the IC50s when the substances are used in combination, and Ay and By are the IC50s, when the substances are used alone. The data was scored with the scale ∑FIC < 1: synergism, 2 > ∑FIC ≥ 1: additive, 4 > ∑FIC ≥ 2: slight antagonism, ∑FIC ≥ 4: marked antagonism.” for “curve.”

[7] = system: 3D7 strain of P. falciparum; set-up: method as in PMID 14598212; details: cited from earlier work
[8] = pure compounds, P. falciparum D6, mean of at least three independent experiments, read-out: IC50 D6

IC50 [1, 8] [µM]	IC50 [2] [µM]	IC50 ([1]; D6, read-out: IC50(D6)) [µM]	Compound	IC50 ([3]; vero cells, MTT) [µM]	IC50 [4] [µM]	IC50 [5] [µM]	IC50 [6] [µM]	Interaction with the cytotoxic effect of oleanonic acid (2), in words (vero cells)	IC50 (vero cells) [µg/mL]	∑FIC 1:1 (vero cells)	∑FIC 1:3 (vero cells)	∑FIC 3:1 (vero cells)	in vitro antiplasmodial activity against 3D7, in words [7]	IC50 ([3]; Vero) [µM]
49.6 ± 2.3	82.7 ± 2	–	CC1(C)CC[C@]2(C(=O)O)CC[C@]3(C)C(=CC[C@@H]4[C@@]5(C)CC[C@H](O)C(C)(C)[C@@H]5CC[C@]43C)[C@@H]2C1 [Compound 4, oleanolic acid]	112 ± 5.1	118 ± 2.6	134.9 ± 0.7	39.82 ± 0.03	slight antagonistic effect	40.3	4.7 ^c	3.3 ^c	3.6 ^c	moderate	–
27.1 ± 0.4	66.9 ± 0.6	–	CC(=CCCC=C(C)CCC=C(C)CCC(O)C(C)(O)CO)CCC=C(C)CCC(O)C(C)(C)O (centres unmarked) [Compound 6, 2-hydroxymethyl-2,3,22,23-tetrahydroxy-6,10,15,19,23-pentamethyl-6,10,14,18-tetracosatetraene]	35.7 ± 2.1	30.2 ± 1.3	38.4 ± 0.8	36.69 ± 0.04	weak antagonistic effects	13.6	2.2 ^c	2.2 ^c	2.3 ^c	–	–
97.1 ± 1	105.8 ± 0.5	–	O=c1c(O[C@@H]2O[C@H](CO)[C@@H](O)[C@H](O)[C@H]2O)c(-c2ccc(O)cc2)oc2cc(O)cc(O)c12 [Compound 9, kaempferol-3-O-β-D-glucopyranoside]	> 223	> 223	> 223	> 223	–	–	–	–	–	–	–
84.7 ± 0.8	150 ± 3	–	COC(=O)C[C@H]1C(C)(C)[C@H](O)[C@@H]2CC3=C4CC(=O)O[C@@H](c5ccoc5)[C@]4(C)CC[C@@H]3[C@@]1(C)C2=O [Compound 8, proceranolide]	> 213	> 213	> 213	–	–	–	–	–	–	–	–
38.8 ± 0.5	76.7 ± 4	–	CC1(C)CC[C@]2(C(=O)O)CC[C@]3(C)C(=CC[C@@H]4[C@@]5(C)CCC(=O)C(C)(C)[C@@H]5CC[C@]43C)[C@@H]2C1 [Compound 2, oleanonic acid]	35.8 ± 1.3	–	1.4 ± 0.1	> 212	–	14.8	–	–	–	–	–
–	–	0.0077	CCN(CC)CCCC(C)Nc1ccnc2cc(Cl)ccc12 (centres unmarked) [Chloroquine, reference compound]	–	–	–	–	–	–	–	–	–	–	43.9
205 ± 3	179 ± 6	–	CC1(C)CC[C@]2(C(=O)O)CC[C@]3(C)C(=CC[C@@H]4[C@@]5(C)CC[C@@H](O)C(C)(C)[C@@H]5CC[C@]43C)C2C1 (stereo partly drawn) [Compound 3, 3-epi-oleanolic acid]	58 ± 5.2	30.3 ± 2.6	29.8 ± 0.3	36.54 ± 0.02	markedly antagonized	22.5	5.2 ^c	9.8 ^c	5.8 ^c	–	–
182 ± 6	> 219	–	CC(C)C12CCC3(CCC4(C)C(CCC5C6(C)CCC(=O)C(C)(C)C6CCC54C)C3O1)CO2 (centres unmarked) [Compound 5, ekeberin A]	> 219	163 ± 4.3	> 219	–	antagonized by high concentrations of ekeberin A (5), but at lower relative concentrations 5 enhanced the toxicity of 2	> 100	<1.4 ^c	<4 ^c	<1.3 ^c	–	–
42.9 ± 0.3	105.8 ± 1	–	O=c1c(O[C@@H]2O[C@H](CO)[C@@H](O)[C@H](O)[C@H]2O)c(-c2ccc(O)c(O)c2)oc2cc(O)cc(O)c12 [Compound 10, quercetin-3-O-β-D-glucopyranoside]	> 216	> 216	> 216	> 216	–	–	–	–	–	–	–
56.1 ± 0.4	64.3 ± 1	–	CC(=CCCC=C(C)CCC=C(C)CCC(O)C(C)(C)O)CCC=C(C)CCC(O)C(C)(C)O (centres unmarked) [Compound 7, 2,3,22,23-tetrahydroxy-2,6,10,15,19,23-hexamethyl-6,10,14,18-tetracosatetraene]	24.7 ± 1.8	22.5 ± 3.2	35.5 ± 3.1	> 209	weak antagonistic effects	11	1.9 ^c	2 ^c	2.2 ^c	–	–
